With `C[C@]1(COC(=O)N2CCc3cc(Cl)ccc32)Cn2cc([N+](=O)[O-])nc2O1`, the melting point (in general, the temperature of the solid-liquid transition) fell in the range of 189 to 191 °C.

Regarding `C[C@]1(COC(=O)N2CCc3cc(Cl)ccc3C2)Cn2cc([N+](=O)[O-])nc2O1`, the melting point fell in the range of 180 to 182 °C. For `CC(C)(C)OC(=O)N1CCN(c2ccc(OCC3(C)Cn4cc([N+](=O)[O-])nc4O3)cc2)CC1` (centres unmarked) the value was 212 to 214.5 °C; for `CC(C)(C)OC(=O)N1CCC(c2ccc(OCC3(C)Cn4cc([N+](=O)[O-])nc4O3)cc2)CC1` (centres unmarked), 207.8 to 209.1 °C.

As for `C[C@]1(COc2ccc(N3CCSCC3)cc2)Cn2cc([N+](=O)[O-])nc2O1`, the melting point lay within 227.5 to 229 °C.

Take `O=C(Nc1ccc(F)cc1)N1CCC2(CC1)Cn1cc([N+](=O)[O-])nc1O2`: the melting point is 238 to 240 °C (dec.).

Consider `C[C@]1(CN2CCC(N3CCN(C(=O)c4ccc(Cl)cc4)CC3)CC2)Cn2cc([N+](=O)[O-])nc2O1`, for which the melting point lay within 174 to 175 °C. In the case of `C[C@]1(CN2CCN(C3CCN(Cc4ccc(Cl)cc4)CC3)CC2)Cn2cc([N+](=O)[O-])nc2O1` it was 168 to 169 °C.

For `C[C@]1(CN2CCN(C3CCN(C(=O)c4ccc(Cl)cc4)CC3)CC2)Cn2cc([N+](=O)[O-])nc2O1`, the melting point lay in the range of 218 to 220 °C. In the case of `CC(C)(C)OC(=O)N1CCC(N2CCN(C[C@@]3(C)Cn4cc([N+](=O)[O-])nc4O3)CC2)CC1` it was 181 to 182 °C. `C[C@]1(CN2CCN(C3CCN(CC=Cc4ccc(OC(F)(F)F)cc4)CC3)CC2)Cn2cc([N+](=O)[O-])nc2O1`: the melting point was 157 to 158 °C. For `C[C@]1(COc2ccc(C3CCN(C(=O)OCc4ccc(OC(F)(F)F)cc4)CC3)cc2)Cn2cc([N+](=O)[O-])nc2O1` the value was 202.5 to 204 °C. For `C[C@]1(COc2ccc(N3CC[S+]([O-])CC3)cc2)Cn2cc([N+](=O)[O-])nc2O1` the value was 198 to 200 °C; for `CN(CCN1CCN(c2ccc(C(F)(F)F)cc2)CC1)C[C@@]1(C)Cn2cc([N+](=O)[O-])nc2O1`, 148 to 150.5 °C; for `CCOC(=O)c1ccccc1NCC1(C)Cn2cc([N+](=O)[O-])nc2O1` (centres unmarked), 162.5 to 163.2 °C.

`CN(Cc1cccc(Cl)c1)C[C@@]1(C)Cn2cc([N+](=O)[O-])nc2O1`: the melting point fell in the range of 177.5 to 178.5 °C. In the case of `CNC(C1CCN(c2ccc(Cl)cc2)CC1)[C@]1(C)Cn2cc([N+](=O)[O-])nc2O1` (some centres unmarked) it was 179.2 to 182.1 °C. For `CC1(CN2CCC(OCc3ccc(Cl)cc3)CC2)Cn2cc([N+](=O)[O-])nc2O1` (centres unmarked) the value was 129 to 130 °C. In the case of `C[C@]1(CN2CCC(c3ccccc3)CC2)Cn2cc([N+](=O)[O-])nc2O1` it was 158.8 to 163.9 °C. `C[C@]1(CN2CCC(OCC=Cc3ccc(Cl)cc3)CC2)Cn2cc([N+](=O)[O-])nc2O1`: the melting point lay within 140.6 to 142.8 °C. The compound `CN(c1ccc(OC(F)(F)F)cc1)C1CCN(C[C@@]2(C)Cn3cc([N+](=O)[O-])nc3O2)CC1` came in with a melting point of 133.2 to 134.4 °C. Regarding `C[C@]1(CN2CCC(NC(=O)OCc3ccc(C(F)(F)F)cc3)CC2)Cn2cc([N+](=O)[O-])nc2O1`, the melting point was in the range of 141.2 to 144 °C.

Turning to `C[C@]1(CN2CCC(NCc3ccc(C(F)(F)F)cc3)CC2)Cn2cc([N+](=O)[O-])nc2O1`, the melting point fell in the range of 148.6 to 152.9 °C.

In the case of `C[C@]1(CN2CCC([S+]([O-])c3ccc(OC(F)(F)F)cc3)CC2)Cn2cc([N+](=O)[O-])nc2O1` (some centres unmarked), the melting point is 107 to 109 °C.

With `CC1(CCN2CCN(Cc3ccc(C(F)(F)F)cc3)CC2)Cn2cc([N+](=O)[O-])nc2O1` (centres unmarked), the melting point is 148 to 149 °C. In the case of `CC1(CN2CCN(C(=O)Cc3ccc(C(F)(F)F)cc3)CC2)Cn2cc([N+](=O)[O-])nc2O1` (centres unmarked) it was 168 to 171.4 °C; in that of `CCCCCCCCOC(=O)N1CCN(CC2(C)Cn3cc([N+](=O)[O-])nc3O2)CC1` (centres unmarked), 138 to 139.4 °C.

`CC1(CN2CCN(C(=S)Nc3ccc(Cl)cc3)CC2)Cn2cc([N+](=O)[O-])nc2O1` (centres unmarked): the melting point was 204 to 206 °C (dec.). With `COc1ccc(NC(=S)N2CCN(CC3(C)Cn4cc([N+](=O)[O-])nc4O3)CC2)cc1` (centres unmarked), the melting point was 189 to 191 °C (dec.). The compound `CC1(CCN2CCN(c3nc4ccccc4o3)CC2)Cn2cc([N+](=O)[O-])nc2O1` (centres unmarked) yielded a melting point of 187.6 to 189.6 °C. Consider `O=[N+]([O-])c1cn2c(n1)O[C@@H](CN1CCN(c3ccc(Cl)cc3)CC1)C2`, for which the melting point is 183 to 183.5 °C. In the case of `C[C@]1(CN2CCN(C(=O)OCC=Cc3ccc(OC(F)(F)F)cc3)CC2)Cn2cc([N+](=O)[O-])nc2O1` it was 91 to 93 °C; in that of `C[C@]1(CN2CCN(Cc3ccc(-c4ccccc4)cc3)CC2)Cn2cc([N+](=O)[O-])nc2O1`, 182 to 184 °C; in that of `C[C@]1(CN2CCN(C(=O)CSc3ccc(Cl)cc3)CC2)Cn2cc([N+](=O)[O-])nc2O1`, 142 to 145 °C. In the case of `CC1(CN2CCN(C(=O)c3ccc(C(F)(F)F)cc3)CC2)Cn2cc([N+](=O)[O-])nc2O1` (centres unmarked) it was 161 to 162 °C. In the case of `Cc1ccc(C(=O)N2CCN(CC3(C)Cn4cc([N+](=O)[O-])nc4O3)CC2)cc1` (centres unmarked) it was 121 to 122 °C; in that of `CC1(CN2CCN(C(=O)c3cccc(C(F)(F)F)c3)CC2)Cn2cc([N+](=O)[O-])nc2O1` (centres unmarked), 122 to 124 °C; in that of `C[C@]1(CN2CCN(C(=O)CCCc3ccc(Cl)cc3)CC2)Cn2cc([N+](=O)[O-])nc2O1`, 146 to 147 °C. Consider `CC1(CN2CCN(S(=O)(=O)c3ccc(Cl)cc3)CC2)Cn2cc([N+](=O)[O-])nc2O1` (centres unmarked), for which the melting point lay in the range of 202 to 204 °C.

`CC1(CN2CCN(S(=O)(=O)Cc3ccc(Cl)cc3)CC2)Cn2cc([N+](=O)[O-])nc2O1` (centres unmarked) came in with a melting point of 215 to 217 °C. For the compound `C[C@]1(CN2CCN(S(=O)(=O)CCc3ccc(Cl)cc3)CC2)Cn2cc([N+](=O)[O-])nc2O1`, the melting point lay within 192 to 193 °C.

`C[C@]1(CN2CCN(S(=O)(=O)c3ccc(Cl)cc3)CC2)Cn2cc([N+](=O)[O-])nc2O1` registered a melting point of 216 to 218 °C.

Consider `O=C(OCc1ccc(C(F)(F)F)cc1)N1CCN(C[C@H]2Cn3cc([N+](=O)[O-])nc3O2)CC1`, for which the melting point is 125 to 125.5 °C. For `CN1C(=O)C(C)(C)c2cc(COC(=O)N3CCN(C[C@@]4(C)Cn5cc([N+](=O)[O-])nc5O4)CC3)ccc21` the value was 80 to 100 °C (dec.); for `C[C@]1(CN2CCN(C(=O)OCC=Cc3c(F)cc(F)cc3F)CC2)Cn2cc([N+](=O)[O-])nc2O1.O=C(O)/C=C\C(=O)O`, 158 to 159 °C; for `CC1(CN2CCN(C(=O)Nc3ccc(C(F)(F)F)cc3)CC2)Cn2cc([N+](=O)[O-])nc2O1` (centres unmarked), 216 to 217 °C. In the case of `C[C@]1(CN2CCN(C(=O)NC3CCCCC3)CC2)Cn2cc([N+](=O)[O-])nc2O1` it was 98 to 101 °C. For `Cc1ccc(NC(=O)N2CCN(C[C@@]3(C)Cn4cc([N+](=O)[O-])nc4O3)CC2)cc1` the value was 207 to 210 °C (dec.); for `C[C@]1(CN2CCN(C(=O)N3CC=C(c4ccc(Cl)cc4)CC3)CC2)Cn2cc([N+](=O)[O-])nc2O1`, 161 to 162 °C; for `C[C@]1(CN2CCN(c3ccc(C(=O)O)cc3)CC2)Cn2cc([N+](=O)[O-])nc2O1`, 248 to 252 °C. As to `C[C@]1(CN2CCN(c3cc(-c4ccccc4)nc(-c4ccccc4)n3)CC2)Cn2cc([N+](=O)[O-])nc2O1`, the melting point lay within 202.5 to 205.4 °C. In the case of `C[C@]1(CN2CCN(c3nc(-c4ccccc4)cc(-c4ccccc4)n3)CC2)Cn2cc([N+](=O)[O-])nc2O1` it was 201.2 to 205.4 °C; in that of `CC1(CN2CCN(N=Cc3ccc(OC(F)(F)F)cc3)CC2)Cn2cc([N+](=O)[O-])nc2O1` (centres unmarked), 189.2 to 190.9 °C. For `CC(=NN1CCN(C[C@@]2(C)Cn3cc([N+](=O)[O-])nc3O2)CC1)c1ccc(Cl)cc1` the value was 164.6 to 166.5 °C; for `C[C@]1(CN2CCN(N=C3CCCCC3)CC2)Cn2cc([N+](=O)[O-])nc2O1`, 178.6 to 179.3 °C. Take `CC1(Cn2nc(-c3ccc(F)cc3)oc2=O)Cn2cc([N+](=O)[O-])nc2O1` (centres unmarked): the melting point is 188 to 191 °C. For `CC1(CCn2nc(-c3cnccn3)oc2=O)Cn2cc([N+](=O)[O-])nc2O1` (centres unmarked) the value was 209 to 212 °C; for `CC1(Cn2c(=O)oc3ccc(Cl)cc32)Cn2cc([N+](=O)[O-])nc2O1` (centres unmarked), 207.6 to 207.9 °C; for `CC1(Cn2c(=O)oc3ccc(F)cc32)Cn2cc([N+](=O)[O-])nc2O1` (centres unmarked), 246.2 to 246.8 °C. In the case of `Cn1c(=O)n(CC2(C)Cn3cc([N+](=O)[O-])nc3O2)c2cc(F)ccc21` (centres unmarked) it was 244.2 to 249.8 °C (dec.); in that of `CCn1c(=O)n(CC2(C)Cn3cc([N+](=O)[O-])nc3O2)c2cc(Cl)ccc21` (centres unmarked), 240.9 to 245.6 °C. In the case of `CCn1nnnc1CCC1(C)Cn2cc([N+](=O)[O-])nc2O1` (centres unmarked) it was 135 to 137 °C.

`CC1(c2cccnc2)Cn2cc([N+](=O)[O-])nc2O1` (centres unmarked) displayed a melting point of 212 to 214 °C. In turn, `CC1(CCN2CCN(C(C)(C)C)C(=O)C2)Cn2cc([N+](=O)[O-])nc2O1` (centres unmarked) had a melting point of 153 to 154 °C. On to `CC1(CN2CCCN(Cc3ccc(-c4ccccc4)cc3)CC2)Cn2cc([N+](=O)[O-])nc2O1` (centres unmarked), for which the melting point is 138 to 142.2 °C. For `O=C(Cc1ccc(C(F)(F)F)cc1)N1CCC2(CC1)Cn1cc([N+](=O)[O-])nc1O2` the value was 185 to 187 °C; for `O=C(OCc1ccc(C(F)(F)F)cc1)N1CCC2(CC1)Cn1cc([N+](=O)[O-])nc1O2`, 189 to 190 °C. For `O=C(CN1CCC2(CC1)Cn1cc([N+](=O)[O-])nc1O2)N1CCN(Cc2ccc(C(F)(F)F)cc2)CC1` the value was 195 to 197 °C (dec.); for `O=C(CN1CCN(CC(=O)N2CCC3(CC2)Cn2cc([N+](=O)[O-])nc2O3)CC1)Nc1ccc(C(F)(F)F)cc1`, 133 to 135 °C; for `CNC(=O)OC[C@@]1(C)Cn2cc([N+](=O)[O-])nc2O1`, 175 to 178 °C. For `CC1(COC(=O)N2CC=C(c3ccc(C(F)(F)F)cc3)CC2)Cn2cc([N+](=O)[O-])nc2O1` (centres unmarked) the value was 113 to 115 °C.

For the origin of these results see US7262212B2, “2,3-dihydro-6-nitroimidazo[2,1-b]oxazoles” (Otsuka Pharmaceutical Co., Ltd., priority 2002, dated 2007).
